According to ChEMBL document CHEMBL5724806, “Unraveling interindividual differences and functional consequences of gut microbial metabolism of immunosuppressants” (2024):

Legend:
Assay type in all cases: ADME
[1] = The drug is tested on the gut metagenome community of A-07 with ENA study accession number: PRJEB31790 for biotransformation under anaerobic condition. The drug concentrations were measured over 7 timepoints collected between 0 and 12 hours of incubation by liquid-chromatography-coupled mass spectrometry (LC–MS); parameters: dose 5 uM, timepoint 0, 0.75, 1.5, 3, 6, 9, 12 hours; conditions: 5 µM
[2] = The drug is tested on the gut metagenome community of A-01 with ENA study accession number: PRJEB31790 for biotransformation under anaerobic condition. The drug concentrations were measured over 7 timepoints collected between 0 and 12 hours of incubation by liquid-chromatography-coupled mass spectrometry (LC–MS); parameters: dose 5 uM, timepoint 0, 0.75, 1.5, 3, 6, 9, 12 hours; conditions: 5 µM
[3] = The drug is tested on the gut metagenome community of A-05 with ENA study accession number: PRJEB31790 for biotransformation under microaerobic condition. The drug concentrations were measured over 7 timepoints collected between 0 and 12 hours of incubation by liquid-chromatography-coupled mass spectrometry (LC–MS); parameters: dose 5 uM, timepoint 0, 0.75, 1.5, 3, 6, 9, 12 hours; conditions: 5 µM
[4] = The drug is tested on Eubacterium rectale strain: DSM17629 for biotransformation under anaerobic condition. The drug concentrations were measured over 6 timepoints collected between 0 and 12 hours of incubation by liquid-chromatography-coupled mass spectrometry (LC–MS); parameters: dose 5 uM, timepoint 0, 1.5, 3, 6, 9, 12 hours; conditions: agathobacter rectalis, 5 µM
[5] = The drug is tested on Enterococcus faecalis strain: ATCC29212 for biotransformation under microaerobic condition. The drug concentrations were measured over 6 timepoints collected between 0 and 12 hours of incubation by liquid-chromatography-coupled mass spectrometry (LC–MS); parameters: dose 5 uM, timepoint 0, 1.5, 3, 6, 9, 12 hours; conditions: 5 µM
[6] = The drug is tested on the gut metagenome community of A-08 with ENA study accession number: PRJEB31790 for biotransformation under microaerobic condition. The drug concentrations were measured over 7 timepoints collected between 0 and 12 hours of incubation by liquid-chromatography-coupled mass spectrometry (LC–MS); parameters: dose 5 uM, timepoint 0, 0.75, 1.5, 3, 6, 9, 12 hours; conditions: 5 µM
[7] = The drug is tested on Streptococcus sanguinis strain: DSM20567 for biotransformation under microaerobic condition. The drug concentrations were measured over 6 timepoints collected between 0 and 12 hours of incubation by liquid-chromatography-coupled mass spectrometry (LC–MS); parameters: dose 5 uM, timepoint 0, 1.5, 3, 6, 9, 12 hours; conditions: 5 µM
[8] = The drug is tested on Collinsella aerofaciens strain: DSM3979 for biotransformation under anaerobic condition. The drug concentrations were measured over 6 timepoints collected between 0 and 12 hours of incubation by liquid-chromatography-coupled mass spectrometry (LC–MS); parameters: dose 5 uM, timepoint 0, 1.5, 3, 6, 9, 12 hours; conditions: 5 µM
[9] = The drug is tested on Alloscardovia omnicolens strain: DSM21503 for biotransformation under microaerobic condition. The drug concentrations were measured over 6 timepoints collected between 0 and 12 hours of incubation by liquid-chromatography-coupled mass spectrometry (LC–MS); parameters: dose 5 uM, timepoint 0, 1.5, 3, 6, 9, 12 hours; conditions: 5 µM
[10] = The drug is tested on the gut metagenome community of P-01 with ENA study accession number: PRJEB31790 for biotransformation under microaerobic condition. The drug concentrations were measured over 7 timepoints collected between 0 and 12 hours of incubation by liquid-chromatography-coupled mass spectrometry (LC–MS); parameters: dose 5 uM, timepoint 0, 0.75, 1.5, 3, 6, 9, 12 hours; conditions: 5 µM
[11] = The drug is tested on the gut metagenome community of T-05 with ENA study accession number: PRJEB31790 for biotransformation under anaerobic condition. The drug concentrations were measured over 7 timepoints collected between 0 and 12 hours of incubation by liquid-chromatography-coupled mass spectrometry (LC–MS); parameters: dose 5 uM, timepoint 0, 0.75, 1.5, 3, 6, 9, 12 hours; conditions: 5 µM
[12] = The drug is tested on Bacteroides vulgatus strain: DSM1447 for biotransformation under anaerobic condition. The drug concentrations were measured over 6 timepoints collected between 0 and 12 hours of incubation by liquid-chromatography-coupled mass spectrometry (LC–MS); parameters: dose 5 uM, timepoint 0, 1.5, 3, 6, 9, 12 hours; conditions: phocaeicola vulgatus, 5 µM
[13] = The drug is tested on Lactobacillus paracasei strain: ATCC27092 for biotransformation under microaerobic condition. The drug concentrations were measured over 6 timepoints collected between 0 and 12 hours of incubation by liquid-chromatography-coupled mass spectrometry (LC–MS); parameters: dose 5 uM, timepoint 0, 1.5, 3, 6, 9, 12 hours; conditions: lacticaseibacillus paracasei, 5 µM
[14] = The drug is tested on the gut metagenome community of A-04 with ENA study accession number: PRJEB31790 for biotransformation under anaerobic condition. The drug concentrations were measured over 7 timepoints collected between 0 and 12 hours of incubation by liquid-chromatography-coupled mass spectrometry (LC–MS); parameters: dose 5 uM, timepoint 0, 0.75, 1.5, 3, 6, 9, 12 hours; conditions: 5 µM
[15] = The drug is tested on Lactobacillus reuteri strain: DSM20016 for biotransformation under anaerobic condition. The drug concentrations were measured over 6 timepoints collected between 0 and 12 hours of incubation by liquid-chromatography-coupled mass spectrometry (LC–MS); parameters: dose 5 uM, timepoint 0, 1.5, 3, 6, 9, 12 hours; conditions: limosilactobacillus reuteri, 5 µM
[16] = The drug is tested on the gut metagenome community of A-02 with ENA study accession number: PRJEB31790 for biotransformation under microaerobic condition. The drug concentrations were measured over 7 timepoints collected between 0 and 12 hours of incubation by liquid-chromatography-coupled mass spectrometry (LC–MS); parameters: dose 5 uM, timepoint 0, 0.75, 1.5, 3, 6, 9, 12 hours; conditions: 5 µM
[17] = The drug is tested on Gemella morbillorum strain: DSM20572 for biotransformation under microaerobic condition. The drug concentrations were measured over 6 timepoints collected between 0 and 12 hours of incubation by liquid-chromatography-coupled mass spectrometry (LC–MS); parameters: dose 5 uM, timepoint 0, 1.5, 3, 6, 9, 12 hours; conditions: 5 µM
[18] = The drug is tested on the gut metagenome community of A-07 with ENA study accession number: PRJEB31790 for biotransformation under microaerobic condition. The drug concentrations were measured over 7 timepoints collected between 0 and 12 hours of incubation by liquid-chromatography-coupled mass spectrometry (LC–MS); parameters: dose 5 uM, timepoint 0, 0.75, 1.5, 3, 6, 9, 12 hours; conditions: 5 µM
[19] = The drug is tested on Actinomyces graevenitzii strain: DSM15540 for biotransformation under microaerobic condition. The drug concentrations were measured over 6 timepoints collected between 0 and 12 hours of incubation by liquid-chromatography-coupled mass spectrometry (LC–MS); parameters: dose 5 uM, timepoint 0, 1.5, 3, 6, 9, 12 hours; conditions: 5 µM
[20] = The drug is tested on Bifidobacterium adolescentis strain: DSM20083 for biotransformation under anaerobic condition. The drug concentrations were measured over 6 timepoints collected between 0 and 12 hours of incubation by liquid-chromatography-coupled mass spectrometry (LC–MS); parameters: dose 5 uM, timepoint 0, 1.5, 3, 6, 9, 12 hours; conditions: 5 µM
[21] = The drug is tested on the gut metagenome community of A-08 with ENA study accession number: PRJEB31790 for biotransformation under anaerobic condition. The drug concentrations were measured over 7 timepoints collected between 0 and 12 hours of incubation by liquid-chromatography-coupled mass spectrometry (LC–MS); parameters: dose 5 uM, timepoint 0, 0.75, 1.5, 3, 6, 9, 12 hours; conditions: 5 µM
[22] = The drug is tested on the gut metagenome community of T-04 with ENA study accession number: PRJEB31790 for biotransformation under anaerobic condition. The drug concentrations were measured over 7 timepoints collected between 0 and 12 hours of incubation by liquid-chromatography-coupled mass spectrometry (LC–MS); parameters: dose 5 uM, timepoint 0, 0.75, 1.5, 3, 6, 9, 12 hours; conditions: 5 µM
[23] = The drug is tested on the gut metagenome community of P-03 with ENA study accession number: PRJEB31790 for biotransformation under microaerobic condition. The drug concentrations were measured over 7 timepoints collected between 0 and 12 hours of incubation by liquid-chromatography-coupled mass spectrometry (LC–MS); parameters: dose 5 uM, timepoint 0, 0.75, 1.5, 3, 6, 9, 12 hours; conditions: 5 µM
[24] = The drug is tested on Streptococcus anginosus strain: DSM20563 for biotransformation under anaerobic condition. The drug concentrations were measured over 6 timepoints collected between 0 and 12 hours of incubation by liquid-chromatography-coupled mass spectrometry (LC–MS); parameters: dose 5 uM, timepoint 0, 1.5, 3, 6, 9, 12 hours; conditions: 5 µM
[25] = The drug is tested on Actinomyces naeslundi strain: DSM43013 for biotransformation under anaerobic condition. The drug concentrations were measured over 6 timepoints collected between 0 and 12 hours of incubation by liquid-chromatography-coupled mass spectrometry (LC–MS); parameters: dose 5 uM, timepoint 0, 1.5, 3, 6, 9, 12 hours; conditions: actinomyces naeslundii, 5 µM

| Compound | Bacterial Biotransformation [1] | Bacterial Biotransformation [2] | Bacterial Biotransformation [3] | Bacterial Biotransformation [4] | Bacterial Biotransformation [5] | Bacterial Biotransformation [6] | Bacterial Biotransformation [7] | Bacterial Biotransformation [8] | Bacterial Biotransformation [9] | Bacterial Biotransformation [10] | Bacterial Biotransformation [11] | Bacterial Biotransformation [12] | Bacterial Biotransformation [13] | Bacterial Biotransformation [14] | Bacterial Biotransformation [15] | Bacterial Biotransformation [16] | Bacterial Biotransformation [17] | Bacterial Biotransformation [18] | Bacterial Biotransformation [19] | Bacterial Biotransformation [20] | also measured |
| --- | --- | --- | --- | --- | --- | --- | --- | --- | --- | --- | --- | --- | --- | --- | --- | --- | --- | --- | --- | --- | --- |
| CN(Cc1cnc2nc(N)nc(N)c2n1)c1ccc(C(=O)N[C@@H](CCC(=O)O)C(=O)O)cc1 [METHOTREXATE] | Compound metabolized | Compound NOT metabolized | Compound NOT metabolized | Compound NOT metabolized | Compound NOT metabolized | Compound metabolized | Compound NOT metabolized | Compound NOT metabolized | Compound NOT metabolized | Compound NOT metabolized | Compound metabolized | Compound NOT metabolized | Compound NOT metabolized | Compound metabolized | Compound NOT metabolized | Compound metabolized | Compound NOT metabolized | Compound metabolized | Compound NOT metabolized | Compound NOT metabolized | Bacterial Biotransformation [21]: Compound metabolized; Bacterial Biotransformation [22]: Compound NOT metabolized; Bacterial Biotransformation [23]: Compound NOT metabolized; Bacterial Biotransformation [24]: Compound NOT metabolized; Bacterial Biotransformation [25]: Compound NOT metabolized |
| C[C@H]1C[C@@H]2[C@H]([C@@H](O)C[C@@]3(C)[C@H]2CC[C@]3(O)C(=O)CO)[C@@]2(C)C=CC(=O)C=C12 [METHYLPREDNISOLONE] | Compound metabolized | Compound metabolized | Compound metabolized | Compound NOT metabolized | Compound NOT metabolized | Compound metabolized | Compound NOT metabolized | Compound NOT metabolized | Compound NOT metabolized | Compound metabolized | Compound NOT metabolized | Compound NOT metabolized | Compound NOT metabolized | Compound metabolized | Compound NOT metabolized | Compound metabolized | Compound NOT metabolized | Compound metabolized | Compound NOT metabolized | Compound NOT metabolized | Bacterial Biotransformation [21]: Compound metabolized; Bacterial Biotransformation [22]: Compound NOT metabolized; Bacterial Biotransformation [23]: Compound metabolized; Bacterial Biotransformation [24]: Compound NOT metabolized; Bacterial Biotransformation [25]: Compound NOT metabolized |
| COc1c(C)c2c(c(O)c1C/C=C(\C)CCC(=O)OCCN1CCOCC1)C(=O)OC2 [MYCOPHENOLATE MOFETIL] | Compound metabolized | Compound metabolized | Compound metabolized | Compound NOT metabolized | Compound metabolized | Compound metabolized | Compound metabolized | Compound metabolized | Compound NOT metabolized | Compound metabolized | Compound metabolized | Compound NOT metabolized | Compound NOT metabolized | Compound metabolized | Compound NOT metabolized | Compound metabolized | Compound NOT metabolized | Compound metabolized | Compound metabolized | Compound NOT metabolized | Bacterial Biotransformation [21]: Compound metabolized; Bacterial Biotransformation [22]: Compound metabolized; Bacterial Biotransformation [23]: Compound metabolized; Bacterial Biotransformation [24]: Compound metabolized; Bacterial Biotransformation [25]: Compound metabolized |
